Experiments:
Assay in all cases: relative viability (nuclei count vs DMSO), 5 days (fraction); higher = more cells survive
CX-5461 + Olaparib = compound: Cc1cnc(CNC(=O)c2c(=O)c3ccc(N4CCCN(C)CC4)nc3n3c2sc2ccccc23)cn1 [CX-5461] + O=C(c1cc(Cc2n[nH]c(=O)c3ccccc23)ccc1F)N1CCN(C(=O)C2CC2)CC1 [Olaparib] (partner 8 µM)
Summary of the method: (§1)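 Values are medians from duplicate plates. Each reflects relative viability, defined as the nuclei count of treated wells over that of vehicle wells. Lung cancer cell lines in 1536-well plates were pin-tool dosed one day after seeding with one drug alone or with a fixed anchor-drug dose plus five library-drug doses (not always all listed) in √10 steps, then fixed, stained and imaged at 4× after 5 days.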

CX-5461 + Luminespib = compound: Cc1cnc(CNC(=O)c2c(=O)c3ccc(N4CCCN(C)CC4)nc3n3c2sc2ccccc23)cn1 [CX-5461] + CCNC(=O)c1noc(-c2cc(C(C)C)c(O)cc2O)c1-c1ccc(CN2CCOCC2)cc1 [Luminespib] (partner 0.01 µM)
Summary of the method: as §1

IMD-0354 + AZD7762 = compound: O=C(Nc1cc(C(F)(F)F)cc(C(F)(F)F)c1)c1cc(Cl)ccc1O [IMD-0354] + NC(=O)Nc1cc(-c2cccc(F)c2)sc1C(=O)N[C@H]1CCCNC1 [AZD7762] (partner 0.2 µM)
Summary of the method: as §1

IMD-0354 + Pictilisib = compound: O=C(Nc1cc(C(F)(F)F)cc(C(F)(F)F)c1)c1cc(Cl)ccc1O [IMD-0354] + CS(=O)(=O)N1CCN(Cc2cc3nc(-c4cccc5[nH]ncc45)nc(N4CCOCC4)c3s2)CC1 [Pictilisib] (partner 1 µM)
Summary of the method: as §1

| Cell Line | relative viability (CX-5461 + Olaparib; first compound 0.01 µM) | relative viability (CX-5461 + Olaparib; first compound 0.03162 µM) | relative viability (CX-5461 + Olaparib; first compound 0.1 µM) | relative viability (CX-5461 + Olaparib; first compound 1 µM) | relative viability (CX-5461 + Luminespib; first compound 0.01 µM) | relative viability (CX-5461 + Luminespib; first compound 0.03162 µM) | relative viability (CX-5461 + Luminespib; first compound 0.1 µM) | relative viability (CX-5461 + Luminespib; first compound 0.3162 µM) | relative viability (CX-5461 + Luminespib; first compound 1 µM) | relative viability (IMD-0354 + AZD7762; first compound 0.04 µM) | relative viability (IMD-0354 + AZD7762; first compound 0.1265 µM) | relative viability (IMD-0354 + AZD7762; first compound 0.4 µM) | relative viability (IMD-0354 + AZD7762; first compound 1.265 µM) | relative viability (IMD-0354 + AZD7762; first compound 4 µM) | relative viability (IMD-0354 + Pictilisib; first compound 0.04 µM) | relative viability (IMD-0354 + Pictilisib; first compound 0.1265 µM) | relative viability (IMD-0354 + Pictilisib; first compound 0.4 µM) | relative viability (IMD-0354 + Pictilisib; first compound 1.265 µM) | relative viability (IMD-0354 + Pictilisib; first compound 4 µM) | relative viability (CX-5461 + Olaparib; first compound 0.3162 µM) |
| --- | --- | --- | --- | --- | --- | --- | --- | --- | --- | --- | --- | --- | --- | --- | --- | --- | --- | --- | --- | --- |
| HOP-62 | 0.315 | 0.355 | 0.287 | 0.254 | 0.849 | 0.921 | 0.905 | 0.973 | 0.917 | 0.741 | 0.977 | 0.473 | 0.327 | 0.176 | 0.958 | 0.804 | 0.346 | 0.237 | 0.0877 | – |
| HARA | 0.82 | 0.67 | 0.793 | 0.556 | 0.711 | 1.15 | 1.09 | – | 0.392 | 0.281 | 0.357 | 0.38 | 0.177 | 0.141 | 0.598 | 0.3 | 0.393 | 0.116 | 0.193 | 0.876 |
| NCI-H838 | 0.863 | 0.846 | 0.726 | 0.476 | 0.299 | 0.301 | 0.36 | – | 0.179 | 0.981 | 0.9 | 0.68 | 0.714 | 0.688 | 0.559 | 0.458 | 0.377 | 0.247 | 0.26 | 0.726 |
| NCI-H1755 | 0.85 | 0.929 | 0.819 | 0.818 | 0.383 | 0.357 | 0.482 | 0.402 | 0.512 | 0.412 | 0.546 | 0.344 | 0.365 | 0.274 | 0.562 | 0.422 | 0.335 | 0.232 | 0.22 | 0.806 |
| NCI-H322M | 0.761 | 0.773 | 0.691 | 0.511 | 1.08 | 0.799 | 0.798 | 0.469 | 0.402 | 0.566 | 0.548 | 0.48 | 0.268 | 0.479 | 0.575 | 0.519 | 0.485 | 0.557 | 0.446 | 0.5 |
| NCI-H3122 | 0.695 | 0.653 | 0.615 | 0.617 | 0.0935 | 0.0696 | 0.096 | 0.0801 | 0.0781 | 1.05 | 1.05 | 0.623 | 0.271 | 0.133 | 0.737 | 0.554 | 0.527 | 0.174 | 0.173 | 0.667 |
| NCI-H2087 | 0.683 | 0.68 | 0.583 | 0.471 | 0.184 | 0.166 | 0.15 | 0.158 | 0.178 | 1.6 | 1.07 | 0.637 | 0.235 | 0.392 | 0.711 | 0.979 | 0.43 | 0.198 | 0.228 | 0.602 |
| LC-2-ad | 0.643 | 0.694 | 0.689 | 0.617 | 0.981 | 1.04 | 0.869 | 0.925 | 0.424 | 0.902 | 0.85 | 0.504 | 0.15 | 0.24 | 0.494 | 0.424 | 0.404 | 0.106 | 0.136 | 0.667 |

Source: the supplement of paper PMC10307832
